Experimental data reported in patent US20210047304A1, “Bromodomain Inhibitors” (AbbVie Inc., priority 2016, published 2021).

What follows are compounds tested against BRD4 (BDI_K57-E168) (Homo sapiens, UniProt O60885) (assay: TR-FRET bromodomain binding assay, BRD4 BDI).
Experimental: A time-resolved fluorescence resonance energy transfer (TR-FRET) assay was used to determine the affinities of compounds of the Examples listed in Table 1 for each bromodomain of BRD4. […] An Alexa647-labeled BET-inhibitor was used as the fluorescent probe in the assay.
(§1) Compound dilution series were prepared in DMSO via an approximately 3-fold serial dilution. Compound dilutions were added directly into white, low-volume assay plates (Perkin Elmer Proxiplate 384 Plus #6008280) using a Labcyte Echo in conjunction with Labcyte Access and Thermo Multidrop CombinL robotics. Compounds were then suspended in eight microliters (μL) of assay buffer (20 mM Sodium Phosphate, pH 6.0, 50 mM NaCl, 1 mM Ethylenediaminetetraacetic acid disodium salt dihydrate, 0.01% Triton X-100, 1 mM DL-Dithiothreitol) containing His-tagged bromodomain, Europium-conjugated anti-His antibody (Invitrogen PV5596) and Alexa-647-conjugated probe.
After a one-hour equilibration at room temperature, TR-FRET ratios were determined using an Envision multilabel plate reader (Ex 340, Em 495/520).
TR-FRET data were normalized to the means of 24 no-compound controls (“high”) and 8 controls containing 1 μM un-labeled probe (“low”). Percent inhibition was plotted as a function of compound concentration and the data were fit with the 4 parameter logistic equation to obtain IC50s. Inhibition constants (Ki) were calculated from the IC50s, probe Kd and probe concentration.
Compound dilution series for Compounds A-E were prepared in DMSO via an approximately 3-fold serial dilution from 0.47 mM to 7.8 nM.
as §1, with “Compound” for “Compound dilution series were prepared in DMSO via an approximately 3-fold serial dilution. Compound”
TR-FRET data were normalized to the means of 24 no-compound controls (“high”) and 8 controls containing 1 μM un-labeled probe (“low”). Percent inhibition was plotted as a function of compound concentration and the data were fit with the 4 parameter logistic equation to obtain IC50s. Inhibition constants (Ki) were calculated from the IC50s, probe Kd and probe concentration. Typical Z′ values were between 0.65 and 0.75. The minimum significant ratio was determined to evaluate assay reproducibility (Eastwood et al., (2006) J Biomol Screen, 11: 253-261). The MSR was determined to be 2.03 for BDI and 1.93 for BDII, and a moving MSR (last six run MSR overtime) for both BDI and BDII was typically <3.

Row | SMILES | Ki [nM]
1 | Cc1cccc(C)c1Oc1ccc(C(C)(C)O)cc1-c1cn(C)c(=O)cc1O[C@H]1CC[C@H](N2CCCC2=O)CC1 [Example 27, 5-[2-(2,6-dimethylphenoxy)-5-(2-hydroxypropan-2-yl)phenyl]-1-methyl-4-{[trans-4-(2-oxopyrrolidin-1-yl)cyclohexyl]oxy}pyridin-2(1H)-one] | 1900
2 | C=CC(=O)N[C@H]1CC[C@H](Oc2cc(=O)n(C)cc2-c2cc(C(C)(C)O)ccc2Oc2c(C)cc(F)cc2C)CC1 [Example 28, N-[trans-4-({5-[2-(4-fluoro-2,6-dimethylphenoxy)-5-(2-hydroxypropan-2-yl)phenyl]-1-methyl-2-oxo-1,2-dihydropyridin-4-yl}oxy)cyclohexyl]prop-2-enamide] | 1520
3 | Cc1cc(F)cc(C)c1Oc1ccc(C(C)(C)O)cc1-c1cn(C)c(=O)cc1O[C@H]1CC[C@H](N2CCCCC2=O)CC1 [Example 29, 5-[2-(4-fluoro-2,6-dimethylphenoxy)-5-(2-hydroxypropan-2-yl)phenyl]-1-methyl-4-{[trans-4-(2-oxopiperidin-1-yl)cyclohexyl]oxy}pyridin-2(1H)-one] | 2220
4 | Cc1cc(F)cc(C)c1Oc1ccc(C(C)(C)O)cc1-c1cn(C)c(=O)cc1O[C@H]1CC[C@H](N2CC(C)(C)C2=O)CC1 [Example 30, 4-{[trans-4-(3,3-dimethyl-2-oxoazetidin-1-yl)cyclohexyl]oxy}-5-[2-(4-fluoro-2,6-dimethylphenoxy)-5-(2-hydroxypropan-2-yl)phenyl]-1-methylpyridin-2(1H)-one] | 3300
5 | Cc1cc(F)cc(C)c1Oc1ccc(C(C)(C)O)cc1-c1cn(C)c(=O)cc1O[C@H]1CC[C@H](N2CCCNC2=O)CC1 [Example 31, 1-[trans-4-({5-[2-(4-fluoro-2,6-dimethylphenoxy)-5-(2-hydroxypropan-2-yl)phenyl]-1-methyl-2-oxo-1,2-dihydropyridin-4-yl}oxy)cyclohexyl]tetrahydropyrimidin-2(1H)-one] | 2410
6 | CC(=O)NC1(C)CCC(Oc2cc(=O)n(C)cc2-c2cc(C(C)(C)O)ccc2Oc2c(C)cc(F)cc2C)CC1 (stereo not drawn) [Example 32, N-[trans-4-({5-[2-(4-fluoro-2,6-dimethylphenoxy)-5-(2-hydroxypropan-2-yl)phenyl]-1-methyl-2-oxo-1,2-dihydropyridin-4-yl}oxy)-1-methylcyclohexyl]acetamide] | 1010
7 | CCc1c(-c2cc(C(C)(C)O)ccc2Oc2c(C)cc(F)cc2C)c(O[C@H]2CC[C@H](N3CCCC3=O)CC2)cc(=O)n1C [Example 33, 6-ethyl-5-[2-(4-fluoro-2,6-dimethylphenoxy)-5-(2-hydroxypropan-2-yl)phenyl]-1-methyl-4-{[trans-4-(2-oxopyrrolidin-1-yl)cyclohexyl]oxy}pyridin-2(1H)-one] | > 13000
8 | Cc1cc(F)cc(C)c1Oc1ccc(C(C)(C)O)cc1-c1cn(C)c(=O)cc1OC1CCC(C)(N2CCCC2=O)CC1 (stereo not drawn) [Example 34, 5-[2-(4-fluoro-2,6-dimethylphenoxy)-5-(2-hydroxypropan-2-yl)phenyl]-1-methyl-4-{[trans-4-methyl-4-(2-oxopyrrolidin-1-yl)cyclohexyl]oxy}pyridin-2(1H)-one] | 890
9 | Cc1cc(F)cc(C)c1Oc1ccc(C(C)(C)O)cc1-c1cn(C)c(=O)cc1O[C@H]1CC[C@H](N2CCNC2=O)CC1 [Example 35, 5-[2-(4-fluoro-2,6-dimethylphenoxy)-5-(2-hydroxypropan-2-yl)phenyl]-1-methyl-4-{[trans-4-(2-oxoimidazolidin-1-yl)cyclohexyl]oxy}pyridin-2(1H)-one] | 1810
10 | C=CCCCC(=O)N[C@H]1CC[C@H](Oc2cc(=O)n(C)cc2-c2cc(C(C)(C)O)ccc2Oc2c(C)cc(F)cc2C)CC1 [Example 36, N-[trans-4-({5-[2-(4-fluoro-2,6-dimethylphenoxy)-5-(2-hydroxypropan-2-yl)phenyl]-1-methyl-2-oxo-1,2-dihydropyridin-4-yl}oxy)cyclohexyl]hex-5-enamide] | 5790
11 | Cc1cc(F)cc(C)c1Oc1ccc(C(C)(C)O)cc1-c1cn(C)c(=O)cc1O[C@H]1CC[C@H](N2CCCCCC2=O)CC1 [Example 37, 1-[trans-4-({5-[2-(4-fluoro-2,6-dimethylphenoxy)-5-(2-hydroxypropan-2-yl)phenyl]-1-methyl-2-oxo-1,2-dihydropyridin-4-yl}oxy)cyclohexyl]azepan-2-one] | 2510
12 | Cc1cc(F)cc(C)c1Oc1ccc(C(C)(C)O)cc1-c1cn(C)c(=O)cc1O[C@H]1CC[C@H](N2CCOC2=O)CC1 [Example 38, 5-[2-(4-fluoro-2,6-dimethylphenoxy)-5-(2-hydroxypropan-2-yl)phenyl]-1-methyl-4-{[trans-4-(2-oxo-1,3-oxazolidin-3-yl)cyclohexyl]oxy}pyridin-2(1H)-one] | 2500
13 | Cc1cc(F)cc(C)c1Oc1ccc(C(C)(C)O)cc1-c1cn(C)c(=O)cc1O[C@H]1CC[C@H](N2CCCOC2=O)CC1 [Example 39, 3-[trans-4-({5-[2-(4-fluoro-2,6-dimethylphenoxy)-5-(2-hydroxypropan-2-yl)phenyl]-1-methyl-2-oxo-1,2-dihydropyridin-4-yl}oxy)cyclohexyl]-1,3-oxazinan-2-one] | 2250
14 | Cc1cc(F)cc(C)c1Oc1ccc(C(C)(C)O)cc1-c1cn(C)c(=O)cc1O[C@H]1CC[C@H](N2CCOCC2=O)CC1 [Example 40, 4-[trans-4-({5-[2-(4-fluoro-2,6-dimethylphenoxy)-5-(2-hydroxypropan-2-yl)phenyl]-1-methyl-2-oxo-1,2-dihydropyridin-4-yl}oxy)cyclohexyl]morpholin-3-one] | 2030
15 | Cc1cc(F)cc(C)c1Oc1ccc(C(C)(C)O)cc1-c1cn(C)c(=O)cc1O[C@H]1CC[C@H](N2CCCN(C)C2=O)CC1 [Example 41, 1-[trans-4-({5-[2-(4-fluoro-2,6-dimethylphenoxy)-5-(2-hydroxypropan-2-yl)phenyl]-1-methyl-2-oxo-1,2-dihydropyridin-4-yl}oxy)cyclohexyl]-3-methyltetrahydropyrimidin-2(1H)-one] | 2480
16 | Cc1cc(F)cc(C)c1Oc1ccc(C(C)(C)O)cc1-c1cn(C)c(=O)cc1O[C@H]1CC[C@H](N2C(=O)c3ccccc3C2=O)CC1 [Example 43, 2-[trans-4-({5-[2-(4-fluoro-2,6-dimethylphenoxy)-5-(2-hydroxypropan-2-yl)phenyl]-1-methyl-2-oxo-1,2-dihydropyridin-4-yl}oxy)cyclohexyl]-1H-isoindole-1,3(2H)-dione] | > 13000
17 | Cc1cc(F)cc(C)c1Oc1ccc(C(C)(C)O)cc1-c1cn(C)c(=O)cc1O[C@H]1CC[C@H](N2C(=O)CCC2=O)CC1 [Example 44, 1-[trans-4-({5-[2-(4-fluoro-2,6-dimethylphenoxy)-5-(2-hydroxypropan-2-yl)phenyl]-1-methyl-2-oxo-1,2-dihydropyridin-4-yl}oxy)cyclohexyl]pyrrolidine-2,5-dione] | 3380
18 | Cc1cc(F)cc(C)c1Oc1ccc(C(C)(C)O)cc1-c1cn(C)c(=O)cc1O[C@H]1CC[C@H](NC(=O)c2ccccc2C(=O)O)CC1 [Example 45, 2-{[trans-4-({5-[2-(4-fluoro-2,6-dimethylphenoxy)-5-(2-hydroxypropan-2-yl)phenyl]-1-methyl-2-oxo-1,2-dihydropyridin-4-yl}oxy)cyclohexyl]carbamoyl}benzoic acid] | 4170
19 | Cc1cc(F)cc(C)c1Oc1ccc(C(C)(C)O)cc1-c1cn(C)c(=O)cc1O[C@H]1CC[C@H](NS(C)(=O)=O)CC1 [Example 46, N-[trans-4-({5-[2-(4-fluoro-2,6-dimethylphenoxy)-5-(2-hydroxypropan-2-yl)phenyl]-1-methyl-2-oxo-1,2-dihydropyridin-4-yl}oxy)cyclohexyl]methanesulfonamide] | 5450
20 | Cc1cc(F)cc(C)c1Oc1ccc(C(C)(C)O)cc1-c1cn(C)c(=O)cc1O[C@H]1CC[C@H](NC(=O)C(C)(C)CCO)CC1 [Example 47, N-[trans-4-({5-[2-(4-fluoro-2,6-dimethylphenoxy)-5-(2-hydroxypropan-2-yl)phenyl]-1-methyl-2-oxo-1,2-dihydropyridin-4-yl}oxy)cyclohexyl]-4-hydroxy-2,2-dimethylbutanamide] | 4020
21 | Cc1cc(F)cc(C)c1Oc1ccc(C(C)(C)O)cc1-c1cn(C)c(=O)cc1O[C@H]1CC[C@H](N2CCC(C)(C)C2=O)CC1 [Example 48, 4-{[trans-4-(3,3-dimethyl-2-oxopyrrolidin-1-yl)cyclohexyl]oxy}-5-[2-(4-fluoro-2,6-dimethylphenoxy)-5-(2-hydroxypropan-2-yl)phenyl]-1-methylpyridin-2(1H)-one] | 1790
